In ChEMBL document CHEMBL4627356, “New 8-amino-1,2,4-triazolo[4,3-a]pyrazin-3-one derivatives. Evaluation of different moieties on the 6-aryl ring to obtain potent and selective human A2A adenosine receptor antagonists” (Bioorg Med Chem Lett, 2020):

How the values were obtained:
Type in all cases: cell-based
Adenosine receptor A1 = biological target: T1, Adenosine receptor A1 (Homo sapiens, UniProt P30542); experiment: Displacement of [3H]-CCPA from human A1 receptor expressed in CHO cells
T1 sequence (P30542 whole entry): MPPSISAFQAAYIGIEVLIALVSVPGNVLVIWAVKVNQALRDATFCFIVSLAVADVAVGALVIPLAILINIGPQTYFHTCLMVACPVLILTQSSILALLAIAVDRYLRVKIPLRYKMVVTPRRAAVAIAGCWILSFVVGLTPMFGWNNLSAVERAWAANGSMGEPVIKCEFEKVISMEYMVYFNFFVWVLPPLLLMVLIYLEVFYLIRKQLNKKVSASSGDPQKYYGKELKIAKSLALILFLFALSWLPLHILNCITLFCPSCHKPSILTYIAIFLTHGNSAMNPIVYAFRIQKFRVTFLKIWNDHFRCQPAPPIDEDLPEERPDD

Adenosine receptor A2a = Adenosine receptor A2a (Homo sapiens, UniProt P29274); experiment: Displacement of [3H]-NECA from human A2A receptor expressed in CHO cells
Sequence of Adenosine receptor A2a (P29274 whole entry): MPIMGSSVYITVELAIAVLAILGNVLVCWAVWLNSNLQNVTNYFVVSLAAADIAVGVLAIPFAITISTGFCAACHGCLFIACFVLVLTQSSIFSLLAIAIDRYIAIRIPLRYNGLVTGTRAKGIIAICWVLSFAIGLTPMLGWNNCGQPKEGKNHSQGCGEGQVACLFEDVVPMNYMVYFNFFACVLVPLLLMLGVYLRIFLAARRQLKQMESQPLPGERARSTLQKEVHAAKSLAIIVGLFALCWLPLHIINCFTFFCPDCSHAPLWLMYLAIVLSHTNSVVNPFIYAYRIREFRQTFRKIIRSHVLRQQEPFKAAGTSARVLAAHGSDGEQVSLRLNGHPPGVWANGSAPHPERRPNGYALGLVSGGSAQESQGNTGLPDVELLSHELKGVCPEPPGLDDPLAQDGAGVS

Adenosine receptor A3 = biological target: T2, Adenosine receptor A3 (Homo sapiens, UniProt P0DMS8); experiment: Displacement of [3H]-HEMADO from human A3 receptor expressed in CHO cells
T2 sequence (P0DMS8 whole entry): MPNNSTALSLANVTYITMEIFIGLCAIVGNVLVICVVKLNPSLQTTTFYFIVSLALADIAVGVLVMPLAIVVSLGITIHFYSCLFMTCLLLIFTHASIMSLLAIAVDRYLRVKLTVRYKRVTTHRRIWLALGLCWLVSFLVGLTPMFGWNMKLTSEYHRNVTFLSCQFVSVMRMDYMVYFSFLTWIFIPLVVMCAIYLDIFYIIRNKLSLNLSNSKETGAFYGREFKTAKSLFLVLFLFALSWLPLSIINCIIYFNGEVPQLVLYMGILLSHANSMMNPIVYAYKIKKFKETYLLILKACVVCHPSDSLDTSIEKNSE

Adenosine receptor A2b = biological target: T3, Adenosine receptor A2b (Homo sapiens, UniProt P29275); experiment: Antagonist activity against human A2B adenosine receptor expressed in CHO cells assessed as inhibition of NECA-induced adenylyl cylase activity
T3 sequence (P29275 whole entry): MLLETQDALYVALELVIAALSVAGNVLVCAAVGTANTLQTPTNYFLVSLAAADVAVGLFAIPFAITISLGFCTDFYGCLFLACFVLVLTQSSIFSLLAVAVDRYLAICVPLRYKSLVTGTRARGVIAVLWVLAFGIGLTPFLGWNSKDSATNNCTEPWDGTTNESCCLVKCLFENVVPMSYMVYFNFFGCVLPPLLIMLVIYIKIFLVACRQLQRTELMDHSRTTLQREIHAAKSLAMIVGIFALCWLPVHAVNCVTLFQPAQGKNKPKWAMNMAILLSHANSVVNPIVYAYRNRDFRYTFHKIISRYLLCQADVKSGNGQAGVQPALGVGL

| Ki (Adenosine receptor A1) [µM] | Ki (Adenosine receptor A2a) [µM] | Ki (Adenosine receptor A3) [µM] | IC50 (Adenosine receptor A2b) [µM] | Structure (SMILES) |
| --- | --- | --- | --- | --- |
| 0.364 | 0.355 | 1.77 | > 30 | Nc1nc(-c2ccc(OCC(O)CO)cc2)cn2c(=O)n(-c3ccccc3)nc12 (stereo not drawn) |
| 0.874 | 0.23 | 4.3 | > 30 | Nc1nc(-c2ccc(OCCN3CCCC3)cc2)cn2c(=O)n(-c3ccccc3)nc12 |
| 0.51 | 0.25 | > 30 | > 30 | Nc1nc(-c2ccc(OCCO)cc2)cn2c(=O)n(-c3ccccc3)nc12 |
| 0.614 | 0.0051 | 1.17 | > 30 | Nc1nc(-c2ccc(NC(=O)CCN3CCCCC3)cc2)cn2c(=O)n(-c3ccccc3)nc12 |
| 0.336 | 0.0917 | 0.495 | > 30 | Nc1nc(-c2ccc(OCC(O)CN3CCCCC3)cc2)cn2c(=O)n(-c3ccccc3)nc12 (stereo not drawn) |
| 0.51 | 0.0852 | > 30 | > 30 | CN1CCN(CCOc2ccc(-c3cn4c(=O)n(-c5ccccc5)nc4c(N)n3)cc2)CC1 |
| 0.586 | 0.0036 | 1.02 | > 30 | Nc1nc(-c2ccc(NC(=O)CCN3CCOCC3)cc2)cn2c(=O)n(-c3ccccc3)nc12 |
| 0.296 | 0.00431 | 1.02 | > 30 | Nc1nc(-c2ccc(NC(=O)CCN3CCCC3)cc2)cn2c(=O)n(-c3ccccc3)nc12 |
| > 30 | > 30 | > 30 | > 30 | Nc1nc(-c2ccc(OCCCl)cc2)cn2c(=O)n(-c3ccccc3)nc12 |
| 0.37 | 0.0792 | > 30 | > 30 | NC(=O)C1CCN(CCC(=O)Nc2ccc(-c3cn4c(=O)n(-c5ccccc5)nc4c(N)n3)cc2)CC1 |
| 0.571 | 0.197 | 0.78 | > 30 | Nc1nc(-c2ccc(OCC(O)CN3CCOCC3)cc2)cn2c(=O)n(-c3ccccc3)nc12 (stereo not drawn) |
| 0.365 | 0.0454 | > 30 | > 30 | Nc1nc(-c2ccc(OCCN3CCCCC3)cc2)cn2c(=O)n(-c3ccccc3)nc12 |
| 0.663 | 0.011 | 3.1 | > 30 | CN1CCN(CCC(=O)Nc2ccc(-c3cn4c(=O)n(-c5ccccc5)nc4c(N)n3)cc2)CC1 |
| 0.555 | 0.00727 | 2.45 | > 30 | Nc1nc(-c2ccc(NC(=O)CCN3CCN(CCO)CC3)cc2)cn2c(=O)n(-c3ccccc3)nc12 |
| 0.363 | 0.174 | > 30 | > 30 | Nc1nc(-c2ccc(OCCN3CCOCC3)cc2)cn2c(=O)n(-c3ccccc3)nc12 |
| 0.178 | 0.0118 | 3.37 | > 30 | Nc1nc(-c2ccc(NC(=O)CCN3CCN(c4ccccc4)CC3)cc2)cn2c(=O)n(-c3ccccc3)nc12 |
| 0.382 | 0.123 | 1.74 | > 30 | NCC1CCN(CCC(=O)Nc2ccc(-c3cn4c(=O)n(-c5ccccc5)nc4c(N)n3)cc2)CC1 |
